# Where a SMILES comes first, the peptide text is derived from it.
# Experiments:
# [1] = tested on: Staphylococcus aureus VRS-2 (VanA, VRSA); assay: microbe, parasite or virus in culture; details: VRS-2 (VanA)
# Protocol: The S. aureus strains ATCC 29213, ATCC 19636, ATCC 33591 (MRSA), BAA-1556 (MRSA USA 300) were obtained from the American Type Culture Collection (ATCC). […] The species identity was confirmed with 16S rRNA analysis.
# Two broth mediums were used, Mueller Hinton Broth and RPMI 1640+5% fetal bovine serum. Test substances were evaluated in 11-point titrations and performed in duplicate.
# The direct colony suspension method was used to prepare inoculated broth. Isolated colonies were taken from an 18-24 h culture plate. Optical density measurements (OD620nm) were used to estimate the bacterial density. […] The stock solutions were diluted by 2-fold serial titrations with their respective vehicles for a total of 11 concentrations.
# A 4 μL aliquot of each dilution was added to 196 μL of broth medium seeded with the organism in wells of a sterilized 96 well polypropylene plate (Nunc™ 249949) using aluminum foil as cover. The final bacterial count was 2 to 8×10^5 CFU/mL. […] The final test article concentration range was 32 to 0.0313 μg/mL.
# Each test substance dilution was evaluated in duplicate on one test occasion. […] Plates were incubated at 35-37° C. for 18 h. The test plates were visually examined and each well was visually scored for growth or complete inhibition of growth. The MIC value was recorded.
# [2] = Maximum Tolerated Dose (MTD) assessment, IV TID q8h: mortality, body weight, clinical observations; assay type: in vivo, mouse; details: 5 mg/kg (IV, TID, q8h)
smiles,measurement,setting,value
CC(C)C[C@@H](NC(=O)[C@@H](Cc1ccc(O)cc1)NC(=O)[C@@H](Cc1c[nH]cn1)NC(=O)[C@H](NC(=O)[C@@H](CC(C)C)NC(=O)[C@@H](C)NC(=O)[C@@H](C)NC(=O)[C@@H](CCCNC(=N)N)NC(=O)CNC(=O)[C@H](NC(=O)[C@@H](Cc1c[nH]cn1)NC(=O)[C@@H](CCCNC(=N)N)NC(=O)CNC(=O)[C@H](NC(=O)[C@@H](Cc1c[nH]cn1)NC(=O)[C@@H](C)NC(=O)[C@@H](C)NC(=O)[C@@H](CCCNC(=N)N)NC(=O)[C@@H](CCCNC(=N)N)NC(=O)[C@@H](Cc1ccccc1)NC(=O)[C@@H](Cc1ccccc1)NC(=O)[C@@H](CO)NC(=O)CNC(=O)[C@@H](Cc1c[nH]c2ccccc12)NC(=O)CN)C(C)C)C(C)C)[C@H](C)O)C(N)=O [D-pleurocidin-KR] (HELM PEPTIDE1{G.[dW].G.[dS].[dF].[dF].[dR].[dR].[dA].[dA].[dH].[dV].G.[dR].[dH].[dV].G.[dR].[dA].[dA].[dL].[dT].[dH].[dY].[dL].[am]}$$$$V2.0; N-terminus assumed),MIC,[1],2 µg/mL
same,tolerability,[2],tolerated
